Experimental data from patent publication US6589975B2, “Synthetic compounds for treatment of inflammation” (The Regents of the University of California, priority 1998, dated 2003).
“And” between values parts separate entries of the source, which are not always exact repeats. Equal entries are not always repeated. Marks after values point to notes of the source that are not given here.

Key:
[1] = tested on: RTX-induced mouse ear edema; test: Inhibition of resiniferatoxin (RTX)-induced inflammation (edema) of the mouse ear; format: in vivo; set-up: Mean (edema): unit not given here; details: for % Inhibition of Edema (RTX-induced edema in mouse ears): Dose 50 μg/ear; for activity in inhibition of RTX-induced edema: in words; for % Inh. Of Edema / Mean (difference, edema) / Difference (left ear minus right ear), single animals / Mean (edema): RTX 0.1 μg/ear; for ED50 for inhibition of RTX-induced edema: topical, with RTX
Method: Induction of mouse ear edema can be conducted according to known methods. See Inoue, 1-f., N. Nagata, Y. Koshffiara (1993), which is herein incorporated by reference. Compounds to be tested for anti-neurogenic inflammatory activity are topically applied in acetone to the ears of mice in a solution that includes the edema-causing irritant resiniferatoxin (RTX). […] After a 30-minute incubation, the mice are sacrificed, the ears removed, and bores taken and weighed. Edema is measured by subtracting the weight of the right ear (acetone control) from the weight of the left ear (treated). Results are recorded as % decrease (inhibition) or % increase (potentiation) in edema relative to the control group edema.
Soritin B was tested for anti-neurogenic inflammatory activity by topically applying in acetone to the ears of mice in a solution that includes the edema-causing irritant resiniferatoxin (RTX) as provided above. See Inoue, 1-f., N. Nagata, Y. Koshffiara (1993), which is herein incorporated by reference. […] After a 30-minute incubation, the mice are sacrificed, the ears removed, and bores taken and weighed. Edema was measured by subtracting the weight of the right ear (acetone control) from the weight of the left ear (treated). Results were recorded as % decrease (inhibition) or % increase (potentiation) in edema relative to the control group edema.

[2] = tested on: PMA-induced mouse ear edema; test: Inhibition of PMA-induced inflammation (edema) of the mouse ear; format: in vivo; set-up: Mean (edema): unit not given here; details: for ED50, topical inhibition of PMA-induced mouse ear edema: with PMA; for Difference (left ear minus right ear), single animals: listed as Compound I
Method: (§1) The test compound and a known inflammatory agent, phorbol myristate acetate (PMA), are topically applied simultaneously to the left ears of mice. Three hours and 20 minutes following application, the mice are sacrificed. Both left ears and right ears are removed and standard sized bores taken. Edema (inflammation) is measured as the difference in weight between left and right ears. See Van Arman, C. G. (1974) Clin. Pharmacol. Ther. 16:900-904, which is herein incorporated by reference.
as §1, with “Soritin B and” for “The test compound and”, “(PMA), were” for “(PMA), are”, “mice were” for “mice are”, “ears were” for “ears are”, “(inflammation) was” for “(inflammation) is”

[3] = Soritin B assay: coloration in solution; format: physicochemical; details: dissolved in acetone
[4] = 50 μg/ear, listed as Compound I
[5] = 3.12 μg/ear, PMA 2.0 μg/ear, n = 15
[6] = 6.25 μg/ear, PMA 2.0 μg/ear, n = 15
[7] = 12.5 μg/ear, PMA 2.0 μg/ear, n = 15
[8] = 25 μg/ear, PMA 2.0 μg/ear, n = 15

In the case of c1ccc2c(Cc3c[nH]c4ccccc34)c[nH]c2c1 [HB-236, bis(3,3′indolyl)methane], the “% Inhibition of Edema (RTX-induced edema in mouse ears)” value (shortened to “% Inhibition of Edema”) [1] is reported as 59.1% and the “activity in inhibition of RTX-induced edema” value [1] is reported as “show activity”.
With O=CC(c1c[nH]c2ccccc12)c1c[nH]c2ccccc12 [HB-237, 2,2-bis(3,3′indolyl) acetaldehyde] the “% Inhibition of Edema” value [1] was 50.1% and the “activity in inhibition of RTX-induced edema” value [1] was “show activity”.
For C[C@]12CCC(=O)C=C1CC[C@@H]1[C@@H]2[C@@H](O)C[C@@]2(C)[C@H]1CC[C@]2(O)C(=O)CO [Hydrocortisone, hydrocortisone, reference compound], the “ED50, topical inhibition of PMA-induced mouse ear edema” value (shortened to “ED50, topical inhibition”) [2] was 20 μg/ear.
In the case of COc1ccc2c(c1)c(CC(=O)O)c(C)n2C(=O)c1ccc(Cl)cc1 [Indomethacin, indomethacin, reference compound], the “ED50, topical inhibition” value [2] is reported as 250 μg/ear.
For CC1=C(CC/C(C)=C/CCC2=CC[C@H](C3=CC(=O)O[C@H]3O)O[C@H]2O)C(C)(C)CCC1 [Manoalide, manoalide, reference compound], the “ED50, topical inhibition” value [2] was 100 μg/ear.
With O=C(O)C(c1c[nH]c2ccccc12)c1c[nH]c2ccccc12 [Soritin A, bis-(1H-indol-3-yl)-acetic acid] the “% Inh. Of Edema” value ([2]; 3.12 μg/ear, PMA 2 μg/ear) was 52.9%, the “Mean (difference, edema)” value ([2]; 3.12 μg/ear, PMA 2 μg/ear) was 6.4 mg and the “Difference (left ear minus right ear), single animals” value (“Difference (left ear minus right ear)” below) ([2]; 3.12 μg/ear, PMA 2 μg/ear) was 4.0 mg and 8.7 mg (2×) and 4.3 mg. For the same molecule, the “% Inh. Of Edema” value ([2]; 6.25 μg/ear, PMA 2 μg/ear) was 75.1%, the “Mean (difference, edema)” value ([2]; 6.25 μg/ear, PMA 2 μg/ear) was 3.4 mg and the “Difference (left ear minus right ear)” value ([2]; 6.25 μg/ear, PMA 2 μg/ear) was 1.2 mg and 4.5 mg and 2.4 mg and 5.5 mg. For the same molecule, the “% Inh. Of Edema” value ([2]; 12.5 μg/ear, PMA 2 μg/ear) was 77.3%, the “Mean (difference, edema)” value ([2]; 12.5 μg/ear, PMA 2 μg/ear) was 3.1 mg and the “Difference (left ear minus right ear)” value ([2]; 12.5 μg/ear, PMA 2 μg/ear) was 4.1 mg and 1.9 mg and 1.2 mg and 5.2 mg. The “% Inh. Of Edema” value ([2]; 25 μg/ear, PMA 2 μg/ear) was 84.9%, the “Mean (difference, edema)” value ([2]; 25 μg/ear, PMA 2 μg/ear) was 2.1 mg and the “Difference (left ear minus right ear)” value ([2]; 25 μg/ear, PMA 2 μg/ear) was 1.7 mg and 3.4 mg and 0.4 mg and 2.8 mg. For the same molecule, the “% Inh. Of Edema” value ([2]; 50 μg/ear, PMA 2 μg/ear) was 87.5%, the “Mean (difference, edema)” value ([2]; 50 μg/ear, PMA 2 μg/ear) was 1.7 mg and the “Difference (left ear minus right ear)” value ([2]; 50 μg/ear, PMA 2 μg/ear) was 1.6 mg and 2.2 mg and 1.3 mg and 1.7 mg. For the same molecule, the “potency in reducing PMA-induced mouse ear edema relative to known anti-inflammatories” value ([2]; in words) was “greater potency than the known anti-inflammatories hydrocortisone, indomethacin, manoalide and topsentin”, the “ED50, topical inhibition” value [2] was 1.3 μg/ear and the “% Inh. Of Edema” value ([1]; 3.12 μg/ear) was 49.9%. The “Mean (difference, edema)” value ([1]; 3.12 μg/ear) was 6.0 mg, the “Difference (left ear minus right ear)” value ([1]; 3.12 μg/ear, listed as Compound I) was 6.0 mg (2×) and 6.6 mg and 7.1 mg and 4.1 mg and 6.3 mg and the “% Inh. Of Edema” value ([1]; 6.25 μg/ear) was 33.6%. For the same molecule, the “Mean (difference, edema)” value ([1]; 6.25 μg/ear) was 8.0 mg, the “Difference (left ear minus right ear)” value ([1]; 6.25 μg/ear, listed as Compound I) was 6.0 mg and 11.2 mg and 7.3 mg and 10.1 mg and 8.3 mg and 5.0 mg and the “% Inh. Of Edema” value ([1]; 12.5 μg/ear) was 76.8%. The “Mean (difference, edema)” value ([1]; 12.5 μg/ear) was 2.8 mg, the “Difference (left ear minus right ear)” value ([1]; 12.5 μg/ear, listed as Compound I) was 3.8 mg and 3.6 mg and 3.1 mg and 1.1 mg and 1.7 mg and 3.4 mg and the “% Inh. Of Edema” value ([1]; 25 μg/ear) was 87.9%. The “Mean (difference, edema)” value ([1]; 25 μg/ear) was 1.5 mg, the “Difference (left ear minus right ear)” value ([1]; 25 μg/ear, listed as Compound I) was 4.1 mg and 0.2 mg and 2.1 mg and 0.6 mg and 0.3 mg and the “Mean (difference, edema)” value ([1]; 50 μg/ear) was 0.3 mg. The “% Inh. Of Edema” value [1, 4] was 97.7%, the “Difference (left ear minus right ear)” value [1, 4] was 0.1 mg and −0.2 mg (2×) and 1.5 mg and the “% Inh. Of Edema” value ([1]; 50 μg/ear, listed as Soritin A (I)) was “approximately 97.7%”. The “% Inhibition of Edema” value [1] was 97.7% and the “ED50 for inhibition of RTX-induced edema” value [1] was 5.1 μg/ear.
With COC(=O)C(c1c[nH]c2ccccc12)c1c[nH]c2ccccc12 [Soritin B, bis-(1H-indol-3-yl)-acetic acid methyl ester] the “% Inh. Of Edema” value [2, 5] was 14.6%, the “Mean (edema)” value [2, 5] was 10.0** and the “% Inh. Of Edema” value [2, 6] was 17.1%. For the same molecule, the “Mean (edema)” value [2, 6] was 9.7**, the “% Inh. Of Edema” value [2, 7] was 27.1% and the “Mean (edema)” value [2, 7] was 8.6*. The “% Inh. Of Edema” value [2, 8] was 50.0%, the “Mean (edema)” value [2, 8] was 5.9* and the “Mean (edema)” value ([2]; 50 μg/ear, PMA 2.0 μg/ear, n = 15) was 3.4*. The “ED50, topical inhibition” value [2] was 24.2 μg/ear, the color in solution [3] was “light amber color” and the “% Inh. Of Edema” value ([1]; 3.12 μg/ear, n = 15) was 7.7%. For the same molecule, the “Mean (edema)” value ([1]; 3.12 μg/ear, n = 15) was 9.1, the “% Inh. Of Edema” value ([1]; 6.25 μg/ear, n = 15) was 34.3% and the “Mean (edema)” value ([1]; 6.25 μg/ear, n = 15) was 6.5*. For the same molecule, the “% Inh. Of Edema” value ([1]; 12.5 μg/ear, n = 15) was 61.0%, the “Mean (edema)” value ([1]; 12.5 μg/ear, n = 15) was 3.2* and the “% Inh. Of Edema” value ([1]; 25 μg/ear, n = 14) was 79.2%. The “Mean (edema)” value ([1]; 25 μg/ear, n = 14) was 1.7*, the “Mean (edema)” value ([1]; 50 μg/ear, n = 15) was 1.0* and the “ED50 for inhibition of RTX-induced edema” value [1] was 10.9 μg/ear.
For O=C(c1nc(-c2c[nH]c3ccccc23)c[nH]1)c1c[nH]c2cc(O)ccc12 [Topsentin, topsentin, reference compound], the “ED50, topical inhibition” value [2] was 15 μg/ear.
